biological target: T1, HCV NS3/4A protease complex, BMS strain (UniProt P27958, C1454S/C1711G, species not given); assay: FRET peptide assay to monitor HCV NS3/4A proteolytic activity (BMS strain); assay type: biochemical, HCV genotype 1a; conditions: read-out: IC50 Range; HCV NS3/4A enzyme assay; class symbols
T1 construct: other: HCV NS3/4A enzyme assay; class symbols; numeric values; fused on or other part: three-lysine solubilising tail at the C-terminus of NS4A; purified on Ni-NTA from the pET21b vector (His tag implied)
From the text: HCV NS3 protease complexes, derived from the BMS strain, H77 strain or J4L6S strain, were generated, as described below. These purified recombinant proteins were generated for use in a homogeneous assay (see below) to provide an indication of how effective compounds of the present disclosure would be in inhibiting HCV NS3 proteolytic activity.
Serum from an HCV-infected patient was obtained from Dr. T. Wright, San Francisco Hospital. An engineered full-length cDNA (compliment deoxyribonucleic acid) template of the HCV genome (BMS strain) was constructed from DNA fragments obtained by reverse transcription-PCR (RT-PCR) of serum RNA (ribonucleic acid) and using primers selected on the basis of homology between other genotype 1a strains. From the determination of the entire genome sequence, a genotype 1a was assigned to the HCV isolate according to the classification of Simmonds et al. (See P Simmonds, K A Rose, S Graham, S W Chan, F McOmish, B C Dow, E A Follett, P L Yap and H Marsden, J. Clin. Microbiol., 31(6), 1493-1503 (1993)). […] The infectious clones, H77 (1a genotype) and J4L6S (1b genotype) were obtained from R. Purcell (NIH) and the sequences are published in Genbank (AAB67036, see Yanagi, M., Purcell, R. H., Emerson, S. U. and Buldi, J. Proc. Natl. Acad. Sci. U.S.A. 94(16),8738-8743 (1997); AF054247, see Yanagi, M., St Claire, M., Shapiro, M., Emerson, S. U., Purcell, R. H. and Bukh, J, Virology 244 (1), 161-172. (1998)).
NS3/4A protease complex-containing fractions were pooled and loaded on a desalting column Superdex-S200 pre-equilibrated with buffer D (25 mM HEPES, pH 7.5, 20% glycerol, 300 mM NaCl, 0.2% TritonX-100, 10 mM βMB). Sample was loaded at a flow rate of 1 mL/min. NS3/4A protease complex-containing fractions were pooled and concentrated to approximately 0.5 mg/ml. The purity of the NS3/4A protease complexes, derived from the BMS, H77 and J4L6S strains, were judged to be greater than 90% by SDS-PAGE and mass spectrometry analyses. The enzyme was stored at −80° C., thawed on ice and diluted prior to use in assay buffer.
The purpose of this in vitro assay was to measure the inhibition of HCV NS3 protease complexes, derived from the BMS strain, H77 strain or J4L6S strain, as described above, by compounds of the present disclosure. This assay provides an indication of how effective compounds of the present disclosure would be in inhibiting HCV NS3 proteolytic activity.
In order to monitor HCV NS3/4A protease activity, an NS3/4A peptide substrate was used. The substrate was RET S1 (Resonance Energy Transfer Depsipeptide Substrate; AnaSpec, Inc. cat #22991)(FRET peptide), described by Taliani et al. in Anal. Biochem. 240(2):60-67 (1996). The sequence of this peptide is loosely based on the NS4A/NS4B natural cleavage site for the HCV NS3 protease except there is an ester linkage rather than an amide bond at the cleavage site. The peptide also contains a fluorescence donor, EDANS, near one end of the peptide and an acceptor, DABCYL, near the other end. The fluorescence of the peptide is quenched by […] resonance energy transfer (RET) between the donor and the acceptor, but as the NS3 protease cleaves the peptide the products are released from RET quenching and the fluorescence of the donor becomes apparent.
The peptide substrate was incubated with one of the three recombinant NS3/4A protease complexes, in the absence or presence of a compound of the present disclosure. The inhibitory effects of a compound were determined by monitoring the formation of fluorescent reaction product in real time using a Cytofluor Series 4000.
Assay buffer: 50 mM HEPES, pH 7.5; 0.15 M NaCl; 0.1% Triton; 15% Glycerol; 10 mM βME. Substrate: 2 μM final concentration (from a 2 mM stock solution in DMSO stored at −20° C.). HCV NS3/4A protease type 1a (1b), 2-3 nM final concentration (from a 5 μM stock solution in 25 mM HEPES, pH 7.5, 20% glycerol, 300 mM NaCl, 0.2% Triton-X100, 10 mM βME). […]

| Structure (SMILES) | IC50 [nM] |
| --- | --- |
| C=C[C@@H]1C[C@]1(NC(=O)[C@@H]1C[C@@H](Oc2ncc(OC)c3ccc(Cl)cc23)CN1C(=O)[C@@H](Nc1nc(-c2cc3cc(Cl)ccc3o2)cs1)C(C)(C)C)C(=O)NS(=O)(=O)C1CC1 [Example 62] | 1 to 20 |
| C=C[C@@H]1C[C@]1(NC(=O)[C@@H]1C[C@@H](Oc2ncc(OC)c3ccc(Cl)cc23)CN1C(=O)[C@@H](Nc1nc(-c2cc(-c3ccc(Cl)cc3)no2)cs1)C(C)(C)C)C(=O)NS(=O)(=O)C1CC1 [Example 88] | 1 to 20 |
| C=C[C@@H]1C[C@]1(NC(=O)[C@@H]1C[C@@H](Oc2ncc(OC)c3ccc(Cl)cc23)CN1C(=O)[C@@H](Nc1nc(-c2cccc(C(F)(F)F)c2F)cs1)C(C)(C)C)C(=O)NS(=O)(=O)C1CC1 [Example 72] | 1 to 20 |
| C=C[C@@H]1C[C@]1(NC(=O)[C@@H]1C[C@@H](Oc2ncc(OC)c3ccc(Cl)cc23)CN1C(=O)[C@@H](Nc1nc(-c2c(F)cccc2F)cs1)C(C)(C)C)C(=O)NS(=O)(=O)C1CC1 [Example 83] | 1 to 20 |
| C=C[C@@H]1C[C@]1(NC(=O)[C@@H]1C[C@@H](Oc2ncc(OC)c3ccc(Cl)cc23)CN1C(=O)[C@@H](Nc1nc(-c2ccc(C)c(C)c2)cs1)C(C)(C)C)C(=O)NS(=O)(=O)C1CC1 [Example 63] | 1 to 20 |
| C=C[C@@H]1C[C@]1(NC(=O)[C@@H]1C[C@@H](Oc2ncc(OC)c3ccc(Cl)cc23)CN1C(=O)[C@@H](Nc1nc(-c2cc(F)c(F)cc2F)cs1)C(C)(C)C)C(=O)NS(=O)(=O)C1CC1 [Example 81] | 1 to 20 |
| C=C[C@@H]1C[C@]1(NC(=O)[C@@H]1C[C@@H](Oc2ncc(OC)c3ccc(Cl)cc23)CN1C(=O)[C@@H](Nc1nc(-c2sccc2Cl)cs1)C(C)(C)C)C(=O)NS(=O)(=O)C1CC1 [Example 90] | 1 to 20 |
| C=C[C@@H]1C[C@]1(NC(=O)[C@@H]1C[C@@H](Oc2ncc(OC)c3ccc(Cl)cc23)CN1C(=O)[C@@H](Nc1nc(-c2cccc(C(F)(F)F)c2)cs1)C(C)(C)C)C(=O)NS(=O)(=O)C1CC1 [Example 94] | 1 to 20 |
| C=C[C@@H]1C[C@]1(NC(=O)[C@@H]1C[C@@H](Oc2ncc(OC)c3ccc(Cl)cc23)CN1C(=O)[C@@H](Nc1nc(-c2ccc(O)cc2)cs1)C(C)(C)C)C(=O)NS(=O)(=O)C1CC1 [Example 60] | 1 to 20 |
| C=C[C@@H]1C[C@]1(NC(=O)[C@@H]1C[C@@H](Oc2ccc(OC)c3ccc(Cl)cc23)CN1C(=O)[C@@H](Nc1nc(-c2ccc(C(F)(F)F)cc2F)cs1)C(C)(C)C)C(=O)NS(=O)(=O)C1CC1 [Example 73] | 1 to 20 |
| C=C[C@@H]1C[C@]1(NC(=O)[C@@H]1C[C@@H](Oc2ncc(OC)c3ccc(Cl)cc23)CN1C(=O)[C@@H](Nc1nc(-c2ccc(Oc3ccccc3)cc2)cs1)C(C)(C)C)C(=O)NS(=O)(=O)C1CC1 [Example 91] | 1 to 20 |
| C=C[C@@H]1C[C@]1(NC(=O)[C@@H]1C[C@@H](Oc2ncc(OC)c3ccc(Cl)cc23)CN1C(=O)[C@@H](Nc1nc(-c2cc3ccccc3o2)cs1)C(C)(C)C)C(=O)NS(=O)(=O)C1CC1 [Example 87] | 1 to 20 |
| C=C[C@@H]1C[C@]1(NC(=O)[C@@H]1C[C@@H](Oc2ncc(OC)c3ccc(Cl)cc23)CN1C(=O)[C@@H](Nc1nc(-c2cc(F)cc(F)c2)cs1)C(C)(C)C)C(=O)NS(=O)(=O)C1CC1 [Example 66] | 1 to 20 |
| C=C[C@@H]1C[C@]1(NC(=O)[C@@H]1C[C@@H](Oc2ncc(OC)c3ccc(Cl)cc23)CN1C(=O)[C@@H](Nc1nc(-c2ccc(OCC)cc2)cs1)C(C)(C)C)C(=O)NS(=O)(=O)C1CC1 [Example 65] | 1 to 20 |
| C=C[C@@H]1C[C@]1(NC(=O)[C@@H]1C[C@@H](Oc2ncc(OC)c3ccc(Cl)cc23)CN1C(=O)[C@@H](Nc1nc(-c2cc(Cl)ccc2Cl)cs1)C(C)(C)C)C(=O)NS(=O)(=O)C1CC1 [Example 76] | 1 to 20 |
| C=C[C@@H]1C[C@]1(NC(=O)[C@@H]1C[C@@H](Oc2ncc(OC)c3ccc(Cl)cc23)CN1C(=O)[C@@H](Nc1nc(-c2sc3ccccc3c2C)cs1)C(C)(C)C)C(=O)NS(=O)(=O)C1CC1 [Example 84] | 1 to 20 |
| C=C[C@@H]1C[C@]1(NC(=O)[C@@H]1C[C@@H](Oc2ncc(OC)c3ccc(Cl)cc23)CN1C(=O)[C@@H](Nc1nc(-c2cc(C)ccc2OC(F)F)cs1)C(C)(C)C)C(=O)NS(=O)(=O)C1CC1 [Example 78] | 1 to 20 |
| C=C[C@@H]1C[C@]1(NC(=O)[C@@H]1C[C@@H](Oc2ncc(OC)c3ccc(Cl)cc23)CN1C(=O)[C@@H](Nc1nc(-c2nc3ccccc3s2)cs1)C(C)(C)C)C(=O)NS(=O)(=O)C1CC1 [Example 96] | 1 to 20 |
| C=C[C@@H]1C[C@]1(NC(=O)[C@@H]1C[C@@H](Oc2ncc(OC)c3ccc(Cl)cc23)CN1C(=O)[C@@H](Nc1nc(-c2ccc(C(F)(F)F)c(F)c2)cs1)C(C)(C)C)C(=O)NS(=O)(=O)C1CC1 [Example 75] | 1 to 20 |
| C=C[C@@H]1C[C@]1(NC(=O)[C@@H]1C[C@@H](Oc2ncc(OC)c3ccc(Cl)cc23)CN1C(=O)[C@@H](Nc1nc(-c2ccc(F)cc2F)c(C)s1)C(C)(C)C)C(=O)NS(=O)(=O)C1CC1 [Example 82] | 1 to 20 |
| C=C[C@@H]1C[C@]1(NC(=O)[C@@H]1C[C@@H](Oc2ncc(OC)c3ccc(Cl)cc23)CN1C(=O)[C@@H](Nc1nc(-c2ccccc2OC(F)(F)F)cs1)C(C)(C)C)C(=O)NS(=O)(=O)C1CC1 [Example 67] | 20 to 200 |
| C=C[C@@H]1C[C@]1(NC(=O)[C@@H]1C[C@@H](Oc2ncc(OC)c3ccc(Cl)cc23)CN1C(=O)[C@@H](Nc1nc(-c2c(F)cccc2C(F)(F)F)cs1)C(C)(C)C)C(=O)NS(=O)(=O)C1CC1 [Example 71] | 20 to 200 |
| C=C[C@@H]1C[C@]1(NC(=O)[C@@H]1C[C@@H](Oc2ncc(OC)c3ccc(Cl)cc23)CN1C(=O)[C@@H](Nc1nc(-c2ccc(S(C)(=O)=O)cc2)cs1)C(C)(C)C)C(=O)NS(=O)(=O)C1CC1 [Example 89] | 1 to 20 |
| C=C[C@@H]1C[C@]1(NC(=O)[C@@H]1C[C@@H](Oc2ncc(OC)c3ccc(Cl)cc23)CN1C(=O)[C@@H](Nc1nc(-c2ccc(OC)c(OC)c2)cs1)C(C)(C)C)C(=O)NS(=O)(=O)C1CC1 [Example 77] | 1 to 20 |

same assay, conditions: read-out: IC50 Range; HCV NS3/4A enzyme assay; numeric values

| Structure (SMILES) | IC50 [nM] |
| --- | --- |
| C=C[C@@H]1C[C@]1(NC(=O)[C@@H]1C[C@@H](Oc2ncc(OC)c3ccc(Cl)cc23)CN1C(=O)C(Nc1ccc(-c2ccccc2)c(OC)c1)C(C)(C)C)C(=O)NS(=O)(=O)C1CC1 (single isomer, unassigned) [Example 18B] | 2500 |
| C=C[C@@H]1C[C@]1(NC(=O)[C@@H]1C[C@@H](Oc2ncc(OC)c3ccc(Cl)cc23)CN1C(=O)[C@@H](Nc1nc(-c2ccccc2C(F)(F)F)cs1)C(C)(C)C)C(=O)NS(=O)(=O)C1CC1 [Example 95] | 17 |
| C=C[C@@H]1C[C@]1(NC(=O)[C@@H]1C[C@@H](Oc2ccc(OC)c3ccc(Cl)cc23)CN1C(=O)[C@@H](Nc1nc(-c2ccc(F)c(C(F)(F)F)c2)cs1)C(C)(C)C)C(=O)NS(=O)(=O)C1CC1 [Example 74] | 2 |
| C=C[C@@H]1C[C@]1(NC(=O)[C@@H]1C[C@@H](Oc2ncc(OC)c3ccc(Cl)cc23)CN1C(=O)[C@@H](Nc1nc(-c2ccc(C(F)(F)F)cc2C(F)(F)F)cs1)C(C)(C)C)C(=O)NS(=O)(=O)C1CC1 [Example 70] | 89 |

— patent US8163921B2, “Hepatitis C virus inhibitors” (Bristol-Myers Squibb Company, priority 2008, dated 2012)
